Our source for the inhibition of growth and IC50 values is ChEMBL document CHEMBL3352804, “One-pot synthesis of polyunsaturated fatty acid amides with anti-proliferative properties” (Bioorg Med Chem Lett, 2014).

Usually IC50 stands for the midpoint of a concentration-inhibition curve. Lower therefore signals greater potency in that assay.

The test system of one assay is A549. Kind of assay: Growth inhibition of human A549 cells at 3 uM after 48 hrs by trypan blue dye exclusion method. The assay is classed as functional. The conditions noted are these: A549, 48 h, read-out: GI.
On to `CC/C=C\C/C=C\C/C=C\C/C=C\C/C=C\C/C=C\CCC(=O)NCCO`, for which the inhibition of growth at 3 µM stood at 29.3%.

For `CC/C=C\C/C=C\C/C=C\C/C=C\C/C=C\C/C=C\CCC(=O)OCC(O)CO` (stereo unspecified), the inhibition of growth at 3 µM amounted to 59.1%.

For the compound `CC/C=C\C/C=C\C/C=C\C/C=C\C/C=C\CCCC(=O)OCC(O)CO` (stereo unspecified), the inhibition of growth at 3 µM was found to be 51.4%.

For `CC/C=C\C/C=C\C/C=C\C/C=C\C/C=C\CCCCCC(=O)OCC(O)CO` (stereo unspecified), the inhibition of growth at 3 µM is 74.5%.

Turning to `CC/C=C\C/C=C\C/C=C\C/C=C\C/C=C\C/C=C\CCC(=O)NC(CO)CO`, the inhibition of growth at 3 µM was determined as 77.4%.

As to `CC/C=C\C/C=C\C/C=C\C/C=C\C/C=C\C/C=C\CCC(=O)NCC(O)CN` (stereo unspecified), the inhibition of growth at 3 µM was determined as 38.3%.

Consider `CC/C=C\C/C=C\C/C=C\C/C=C\C/C=C\C/C=C\CCC(=O)NCC(O)CNC(=O)CC/C=C\C/C=C\C/C=C\C/C=C\C/C=C\C/C=C\CC`, for which the inhibition of growth at 3 µM was 83.8%.

Turning to `CC/C=C\C/C=C\C/C=C\C/C=C\C/C=C\C/C=C\CCC(=O)NCC(O)CO` (stereo unspecified), the inhibition of growth at 3 µM is 88.7%.

As for `CC/C=C\C/C=C\C/C=C\C/C=C\C/C=C\CCCC(=O)NC(C)CO` (stereo unspecified), the inhibition of growth at 3 µM amounted to 98.4%.

Regarding `CC/C=C\C/C=C\C/C=C\C/C=C\C/C=C\CCCC(=O)NCCO`, the inhibition of growth at 3 µM is 70.9%.

Consider `CC/C=C\C/C=C\C/C=C\C/C=C\C/C=C\CCCC(=O)NC(CO)CO`, for which the inhibition of growth at 3 µM was 84.2%.

In the case of `CC/C=C\C/C=C\C/C=C\C/C=C\C/C=C\C/C=C\CCC(=O)N[C@H](C)CO`, the inhibition of growth at 3 µM is 98.3%.

`CC/C=C\C/C=C\C/C=C\C/C=C\C/C=C\C/C=C\CCC(=O)NCCNC(=O)CC/C=C\C/C=C\C/C=C\C/C=C\C/C=C\C/C=C\CC`: the inhibition of growth at 3 µM was 13%.

As to `CC/C=C\C/C=C\C/C=C\C/C=C\C/C=C\C/C=C\CCC(=O)NC[C@@H](O)CO`, the inhibition of growth at 3 µM amounted to 48.1%.

`CC/C=C\C/C=C\C/C=C\C/C=C\C/C=C\C/C=C\CCC(=O)NC[C@H](O)CO`: the inhibition of growth at 3 µM was found to be 42.3%.

For the compound `CC/C=C\C/C=C\C/C=C\C/C=C\C/C=C\C/C=C\CCC(=O)NC(CO)C(=O)O` (stereo unspecified), the inhibition of growth at 3 µM came out at 68.7%.

Consider `CC/C=C\C/C=C\C/C=C\C/C=C\C/C=C\CCCCCC(=O)NCCO`, for which the inhibition of growth at 3 µM came to 96.9%.

As for `CC/C=C\C/C=C\C/C=C\C/C=C\C/C=C\CCCCCC(=O)NCC(O)CNC(=O)CCCCC/C=C\C/C=C\C/C=C\C/C=C\C/C=C\CC`, the inhibition of growth at 3 µM came out at 97.7%.

For `CC/C=C\C/C=C\C/C=C\C/C=C\C/C=C\CCCCCC(=O)NC[C@@H](O)CO`, the inhibition of growth at 3 µM is 47.4%.

For the compound `CC/C=C\C/C=C\C/C=C\C/C=C\C/C=C\CCCCCC(=O)NC[C@H](O)CO`, the inhibition of growth at 3 µM was found to be 31.6%.

Take `CC/C=C\C/C=C\C/C=C\C/C=C\C/C=C\CCCCCC(=O)NC(CO)CO`: the inhibition of growth at 3 µM was 97.4%.

For `CC/C=C\C/C=C\C/C=C\C/C=C\C/C=C\CCCC(=O)OCCCN(C)C`, the inhibition of growth at 3 µM was 95%.

Regarding `CC/C=C\C/C=C\C/C=C\C/C=C\C/C=C\CCCC(=O)NCCCNC`, the inhibition of growth at 3 µM worked out at 67.8%.

Another assay concerns A549. As to the kind of experiment: Growth inhibition of human A549 cells after 48 hrs by trypan blue dye exclusion method. The format is functional, cell-based. The conditions noted are these: A549, 48 h.
Take `CC/C=C\C/C=C\C/C=C\C/C=C\C/C=C\C/C=C\CCC(=O)OCC(O)CO` (stereo unspecified): the midpoint of inhibition, the IC50, lay at 1500 nM.

On to `CC/C=C\C/C=C\C/C=C\C/C=C\C/C=C\C/C=C\CCC(=O)NC(CO)CO`, for which the midpoint of inhibition, the IC50, lay at 480 nM. This IC50 is about 3.1-fold lower than that of the compound before.

`CC/C=C\C/C=C\C/C=C\C/C=C\C/C=C\C/C=C\CCC(=O)N[C@H](C)CO` gave a half-maximal inhibitory concentration (IC50) of 250 nM.
